Test system: M. luteus MS2
Assay: Pulldown binding assay, Langmuir isotherm fit, M. luteus
Set-up: species or system Micrococcus luteus
Details: association constant from Langmuir isotherm fit
From the text: To investigate whether the changes in the observed level of binding were due to changes in the affinities or avidities of the refined peptides for cell surfaces, binding curves were generated for selected peptides and fit to the Langmuir isotherm (where possible), the simplest model describing binding to surfaces (peptides showing either complex or nonspecific binding isotherms were excluded from this analysis).
Measurements were taken of the absorbance of the labeled peptide at 488 nm (the peak absorbance of the fluorescein label) before and after exposure to the cells. The amount of peptide bound was calculated by comparing the ratio of the final (Af) and initial (Ai) absorbances to the initial concentration (C0)[Cbound=C0(1−(Af/Ai))]. Bacterial surface area per sample was calculated using a stage micrometer to determine the average cell diameter for each species (1.0+/−0.1 μm for S. aureus AM1, 2.7+/−0.1 μm for M. luteus MS2), treating individual cells as discrete spheres. Average cell concentration per unit OD600 was calculated using a hemocytometer.
Plots were then generated of the amount of peptide bound per m^2 of bacterial surface area vs. the concentration of unbound peptide at equilibrium. Where possible, the resulting isotherms were fit to the Langmuir isotherm (P/A=(KaNCeq)/(1+KaCeq), where P/A represents the molar amount of peptide bound per unit of bacterial surface area, Ka is the association constant of the peptide with the bacterial surface (L/Mol), N is the maximum surface concentration (mol/m^2), and Ceq is the molar concentration of unbound peptide at equilibrium) (Calis et al. (1995) Pharm Res 12(7): 1072-1076). Data plots and curvefits were obtained using Kaleidagraph (Synergy Software).

With “Orthogonal refinement 2B: orthogonal refined library peptide, SEQ ID NO:67 (IVVSQQILN; synthetic orthogonal refinement library peptide B2)” the “Langmuir Affinity (Ka)” value was 0.4 ± 0.3 M^−1 × 10000.

Same assay, conditions: maximum surface concentration from Langmuir fit

In the case of “Orthogonal refinement 2B: orthogonal refined library peptide, SEQ ID NO:67 (IVVSQQILN; synthetic orthogonal refinement library peptide B2)”, the “Monolayer Concentration (N)” value is reported as 0.5 ± 0.3 Mol/m^2 × 0.0001.

Test system: not given
Assay: not given
Details: per amino acid; cited from earlier work

In order of falling “Hydrophobicity (Fauchere and Pliska, 1983)” value:
1. N[C@@H](Cc1c[nH]c2ccccc12)C(=O)O [Trp]  2.25
2. CC[C@H](C)[C@H](N)C(=O)O [Ile]  1.8
3. N[C@@H](Cc1ccccc1)C(=O)O [Phe]  1.79
4. CC(C)C[C@H](N)C(=O)O [Leu]  1.7
5. CSCC[C@H](N)C(=O)O [Met]  1.23
6. CC(C)[C@H](N)C(=O)O [Val]  1.22
7. N[C@@H](Cc1ccc(O)cc1)C(=O)O [Tyr]  0.96
8. O=C(O)[C@@H]1CCCN1 [Pro]  0.72
9. C[C@H](N)C(=O)O [Ala]  0.31
10. C[C@@H](O)[C@H](N)C(=O)O [Thr]  0.26
11. N[C@@H](Cc1c[nH]cn1)C(=O)O [His]  0.13
12. NCC(=O)O [Gly]  0
13. NC(=O)CC[C@H](N)C(=O)O [Gln]  −0.22
14. NC(=O)C[C@H](N)C(=O)O [Asn]  −0.6
15. N[C@@H](CCC(=O)O)C(=O)O [Glu]  −0.64
16. N[C@@H](CC(=O)O)C(=O)O [Asp]  −0.77
17. NCCCC[C@H](N)C(=O)O [Lys]  −0.99
18. N=C(N)NCCC[C@H](N)C(=O)O [Arg]  −1.01

From US20090298707A1, “SPARSE MATRIX SYSTEM AND METHOD FOR IDENTIFICATION OF SPECIFIC LIGANDS OR TARGETS” (priority 2008, published 2009)
